How the values were obtained:
Type in all cases: in vivo
[1] = test system: corn rootworm; assay: Mite/insect screen, CRW; details: percent mortality; for mortality at 12 ppm / CRW RESULTS %: CRW RATE 12.00 PPM
Method in brief: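 Compounds were dissolved in 50:50 acetone/alcohol containing sulfonate/nonionic emulsifier blends (23 g/L plus 13 g/L), then diluted with water to the test concentrations. Percent mortality was scored after standard exposure periods.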

[2] = test system: Puccinia recondita tritici (leaf rust); assay: Test 1 greenhouse foliar spray screen, leaf rust on wheat; details: disease control rating, foliar spray on wheat, 400 ppm (+++ at 100 ppm)
[3] = test system: Pyricularia oryzae (rice blast); assay: whole plant or invertebrate; details: disease control rating, foliar spray on rice, 400 ppm (+++ at 100 ppm)
[4] = test system: Cercospora beticola (leaf spot); assay: Test 1 greenhouse foliar spray screen, leaf spot on sugar beet; details: disease control rating, foliar spray on sugar beet, 400 ppm (+++ at 100 ppm)
[5] = test system: Twospotted spider mites (Tetranychus urticae Koch); assay: Mite/insect screen, SM; details: percent mortality, SAW; for mortality at 200 ppm / SM RESULTS %: SM & MA RATE 200 PPM
Method in brief: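 Activity is expressed as percent mortality at the indicated spray concentrations. Plants are sprayed to runoff on upper and lower leaf surfaces with aqueous dilutions of an acetone/alcohol emulsifiable formulation, then dried for one hour.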

[6] = test system: melon aphids (Aphis gossypii Glover); assay: Mite/insect screen, MA; details: percent mortality, SAW; for mortality at 200 ppm / MA RESULTS %: SM & MA RATE 200 PPM
Method in brief: (§1)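 Compounds dissolved in 50:50 acetone/alcohol containing sulfonate/nonionic emulsifier blends, then diluted with water to the indicated concentrations. Leaves sprayed on both surfaces to runoff at 10 psi and dried one hour. Percent mortality scored after standard exposure periods.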

[7] = test system: southern armyworm (Spodopetra eridania Cramer); assay: Mite/insect screen, SAW; details: percent mortality, SAW; for mortality at 200 ppm / SAW RESULTS %: SM & MA RATE 200 PPM
Method in brief: as §1

[8] = test system: Botrytis cinerea (gray mold); assay: Test 1 greenhouse foliar spray screen, gray mold on grape berries; details: disease control rating, spray on grape berries, 400 ppm (+++ at 100 ppm)
[9] = test system: Venturia inaequalis (apple scab); assay: Test 1 greenhouse foliar spray screen, apple scab on apple seedling; details: disease control rating, foliar spray on apple seedling, 400 ppm (+++ at 100 ppm)
[10] = test system: Septoria tritici (leaf blotch); assay: Test 1 greenhouse foliar spray screen, leaf blotch on wheat; details: disease control rating, foliar spray on wheat, 400 ppm (+++ at 100 ppm)
[11] = test system: Pseudoperonospora cubensis (downy mildew); assay: Test 1 greenhouse foliar spray screen, downy mildew on squash; details: for DOWN MDEW: disease control rating, foliar spray on squash, 400 ppm (+++ at 100 ppm)
[12] = test system: Erysiphe graminis tritici (powdery mildew); assay: Test 1 greenhouse foliar spray screen, powdery mildew on wheat; details: disease control rating, foliar spray on wheat, 400 ppm (+++ at 100 ppm)
[13] = Tetranychus urticae, read-out: SM RESULTS %
[14] = Aphis gossypii, read-out: MA RESULTS %
[15] = Spodoptera eridania, read-out: SAW RESULTS %

| SMILES | mortality at 12 ppm ([1]; read-out: CRW RESULTS %) [%] | LEAF RUST [2] | RICE BLAST [3] | LEAF SPOT [4] | mortality at 200 ppm [5, 13] [%] | mortality at 200 ppm [6, 14] [%] | mortality at 200 ppm [7, 15] [%] | GRAY MOLD [8] | APPL SCAB [9] | LEAF BLOT [10] | DOWN MDEW [11] | POWD MDEW [12] | CRW RESULTS % [1] [%] | SM RESULTS % [5] [%] | MA RESULTS % [6] [%] | SAW RESULTS % [7] [%] | further results |
| --- | --- | --- | --- | --- | --- | --- | --- | --- | --- | --- | --- | --- | --- | --- | --- | --- | --- |
| CCc1ccc2nccc(NCCC3=CCCCC3)c2c1 [Example 145, N-[2-(1-cyclohexenyl)ethyl]-6-ethyl-4-quinolinamine] | 0 | + (20-89% control at 400 ppm) | + (20-89% control at 400 ppm) | + (20-89% control at 400 ppm) | 0 | 0 | 0 | - (0-19% control at 400 ppm) | - (0-19% control at 400 ppm) | - (0-19% control at 400 ppm) | +++ (90-100% control at 100 ppm) | - (0-19% control at 400 ppm) | – | – | – | – | mortality at 24 ppm ([1]; CRW RATE 24.00 PPM, read-out: CRW RESULTS %): 0%; mortality at 400 ppm ([5]; Tetranychus urticae, SM & MA RATE 400 PPM, read-out: SM RESULTS %): 0%; mortality at 400 ppm ([6]; Aphis gossypii, SM & MA RATE 400 PPM, read-out: MA RESULTS %): 0%; mortality at 400 ppm ([7]; Spodoptera eridania, SM & MA RATE 400 PPM, read-out: SAW RESULTS %): 0% |
| c1csc(CCNc2ccnc3ccccc23)c1 [Example 147, N-[2-(2-thienyl)ethyl]-4-quinolinamine] | 0 | + (20-89% control at 400 ppm) | + (20-89% control at 400 ppm) | - (0-19% control at 400 ppm) | 0 | 0 | 0 | - (0-19% control at 400 ppm) | - (0-19% control at 400 ppm) | - (0-19% control at 400 ppm) | +++ (90-100% control at 100 ppm) | - (0-19% control at 400 ppm) | – | – | – | – | – |
| c1ccc2c(NCCc3ccsc3)ccnc2c1 [Example 148, N-[2-(3-thienyl)ethyl]-4-quinolinamine] | 0 | + (20-89% control at 400 ppm) | + (20-89% control at 400 ppm) | + (20-89% control at 400 ppm) | 0 | 0 | 0 | - (0-19% control at 400 ppm) | - (0-19% control at 400 ppm) | - (0-19% control at 400 ppm) | ++ (90-100% control at 400 ppm) | - (0-19% control at 400 ppm) | – | – | – | – | – |
| Fc1cc(F)c2nccc(NCCc3cccs3)c2c1 [Example 149, 6,8-difluoro-N-[2-(2-thienyl)ethyl]-4-quinolinamine] | 0 | ++ (90-100% control at 400 ppm) | + (20-89% control at 400 ppm) | +++ (90-100% control at 100 ppm) | 0 | 0 | 0 | - (0-19% control at 400 ppm) | - (0-19% control at 400 ppm) | + (20-89% control at 400 ppm) | ++ (90-100% control at 400 ppm) | + (20-89% control at 400 ppm) | – | – | – | – | – |
| Fc1cc(F)c2nccc(NCCc3ccsc3)c2c1 [Example 150, 6,8-difluoro-N-[2-(3-thienyl)ethyl]-4-quinolinamine] | 0 | ++ (90-100% control at 400 ppm) | + (20-89% control at 400 ppm) | +++ (90-100% control at 100 ppm) | 0 | 0 | 0 | - (0-19% control at 400 ppm) | - (0-19% control at 400 ppm) | +++ (90-100% control at 100 ppm) | ++ (90-100% control at 400 ppm) | + (20-89% control at 400 ppm) | 0 | 0 | 0 | 0 | – |
| c1ccc2c(CCNc3ccnc4ccccc34)cccc2c1 [Example 151, N-[2-(1-naphthyl)ethyl]-4-quinolinamine] | 0 | ++ (90-100% control at 400 ppm) | + (20-89% control at 400 ppm) | + (20-89% control at 400 ppm) | 0 | 0 | 0 | - (0-19% control at 400 ppm) | - (0-19% control at 400 ppm) | + (20-89% control at 400 ppm) | +++ (90-100% control at 100 ppm) | + (20-89% control at 400 ppm) | – | – | – | – | – |
| c1ccc2cc(CCNc3ccnc4ccccc34)ccc2c1 [Example 152, N-[2-(2-naphthyl)ethyl]-4-quinolinamine] | 0 | ++ (90-100% control at 400 ppm) | +++ (90-100% control at 100 ppm) | +++ (90-100% control at 100 ppm) | 0 | 0 | 0 | - (0-19% control at 400 ppm) | - (0-19% control at 400 ppm) | +++ (90-100% control at 100 ppm) | +++ (90-100% control at 100 ppm) | ++ (90-100% control at 400 ppm) | 0 | 0 | 0 | 0 | – |
| FC(F)(F)c1ccc2c(NCCc3cccs3)ccnc2c1 [Example 153, N-[2-(2-thienyl)ethyl]-7-(trifluoromethyl)-4-quinolinamine] | 0 | ++ (90-100% control at 400 ppm) | ++ (90-100% control at 400 ppm) | - (0-19% control at 400 ppm) | 0 | 0 | 0 | - (0-19% control at 400 ppm) | - (0-19% control at 400 ppm) | - (0-19% control at 400 ppm) | + (20-89% control at 400 ppm) | + (20-89% control at 400 ppm) | – | – | – | – | – |
| Fc1cccc2c(NCCc3nc(-c4ccccc4)cs3)ccnc12 [Example 154, 8-fluoro-N-[2-(4-phenyl-2-thiazolyl)ethyl]-4-quinolinamine] | 0 | +++ (90-100% control at 100 ppm) | + (20-89% control at 400 ppm) | + (20-89% control at 400 ppm) | 0 | 0 | 0 | - (0-19% control at 400 ppm) | + (20-89% control at 400 ppm) | + (20-89% control at 400 ppm) | +++ (90-100% control at 100 ppm) | ++ (90-100% control at 400 ppm) | 0 | 0 | 0 | 0 | activity against downy mildew ([11]; summary statement in the description): particularly excellent activity |
| Clc1cccc2c(NCCc3cccc4ccccc34)ccnc12 [Example 155, 8-chloro-N-[2-(1-naphthyl)ethyl]-4-quinolinamine] | 0 | - (0-19% control at 400 ppm) | + (20-89% control at 400 ppm) | - (0-19% control at 400 ppm) | 0 | 0 | 0 | - (0-19% control at 400 ppm) | - (0-19% control at 400 ppm) | - (0-19% control at 400 ppm) | +++ (90-100% control at 100 ppm) | - (0-19% control at 400 ppm) | – | – | – | – | – |

Reference: patent publication EP0326331B1, “Substituted quinolines and cinnolines” (Dow AgroSciences LLC, priority 1988, dated 1989)
